Measured values published in PubChem BioAssay AID330 (DTP/NCI, 2004).
Where “and” joins values, the source holds several entries; their conditions need not be identical. Equal values may be shown once. Toxic doses and inconclusive results are not listed. The calls were made as follows: active = survival T/C of 150% or more; inactive = T/C below 125% in these data.

System: P388 leukemia ip, CD2F1 mice, survival T/C
Experiment: NCI In Vivo Anticancer Drug Screen. Data for tumor model P388 Leukemia (intraperitoneal) in CD2F1 (CDF1) mice
Conditions: endpoint: median survival time, higher = longer survival
Procedure, shortened: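 Mice carrying the transplanted tumor received test compound or vehicle. Survival was recorded in each group, and the value is the treated-group measurement divided by that of the vehicle-treated control group.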

[1] = dose: 60.0 mg/kg/injection, schedule: Q01DX005 (ip), vehicle: Klucel (hydroxypropylcellulose) (HPC)
[2] = dose: 120.0 mg/kg/injection, schedule: Q01DX005 (ip), vehicle: Klucel (hydroxypropylcellulose) (HPC)
[3] = dose: 240.0 mg/kg/injection, schedule: Q01DX005 (ip), vehicle: Klucel (hydroxypropylcellulose) (HPC)
[4] = dose: 50.0 mg/kg/injection, schedule: Q01DX009 (ip), vehicle: saline with Tween-80
[5] = dose: 100.0 mg/kg/injection, schedule: Q01DX009 (ip), vehicle: saline with Tween-80
[6] = dose: 50.0 mg/kg/injection, schedule: Q01DX005 (ip), vehicle: Klucel (hydroxypropylcellulose) (HPC)

Measured: T/C

CCCCCCN(CCCCCC)c1nsc(Cl)n1
inactive: dose: 40.0 mg/kg/injection, schedule: Q01DX009 (ip), vehicle: saline with Tween-80 105 % of control | dose: 80.0 mg/kg/injection, schedule: Q01DX009 (ip), vehicle: saline with Tween-80 108 % of control | dose: 160.0 mg/kg/injection, schedule: Q01DX009 (ip), vehicle: saline with Tween-80 111 % of control

CCOC(=O)c1cccc2c(=O)c3c([nH]c12)C(=O)c1c([nH]c2c(C(=O)OCC)cccc2c1=O)C3=O
inactive: dose: 50.0 mg/kg/injection, schedule: Q01DX009 (ip), vehicle: Klucel (hydroxypropylcellulose) (HPC) 98 % of control | dose: 100.0 mg/kg/injection, schedule: Q01DX009 (ip), vehicle: Klucel (hydroxypropylcellulose) (HPC) 90 % of control | dose: 200.0 mg/kg/injection, schedule: Q01DX009 (ip), vehicle: Klucel (hydroxypropylcellulose) (HPC) 90 % of control

Cc1cccc2c(OCC3CO3)cc(=O)[nH]c12 (stereo not given)
inactive: dose: 25.0 mg/kg/injection, schedule: Q01DX005 (ip), vehicle: saline with Tween-80 110 % of control | dose: 50.0 mg/kg/injection, schedule: Q01DX005 (ip), vehicle: saline with Tween-80 114 % of control and 118 % of control

O=C(COc1ccc2c(=O)c3ccccc3oc2c1)N/N=C/c1ccc(N(CCCl)CCCl)cc1
inactive: [1] 97 % of control | [2] 95 % of control | [3] 94 % of control

CC(=O)OC1C2CC(Cl)C1C2 (stereo not given)
inactive: [4] 100 % of control | [5] 109 % of control | dose: 200.0 mg/kg/injection, schedule: Q01DX009 (ip), vehicle: saline with Tween-80 105 % of control

C/C=C(\C)c1cc(=O)c2c(C)cc3c(c2o1)C(=O)c1c(O)c(C2CC(C)(N(C)C)C(OC(C)=O)C(C)O2)cc(C2CC(N(C)C)C(O)C(C)O2)c1C3=O (stereo not given)
inactive: dose: 1.25 mg/kg/injection, schedule: Q01DX009 (ip), vehicle: saline 100 % of control | dose: 2.5 mg/kg/injection, schedule: Q01DX009 (ip), vehicle: saline 117 % of control | dose: 5.0 mg/kg/injection, schedule: Q01DX009 (ip), vehicle: saline 89 % of control

CCn1c2ccccc2c2cc(N=Nc3ccnc4c(O)cccc34)ccc21
inactive: dose: 12.5 mg/kg/injection, schedule: Q01DX009 (ip), vehicle: saline with Tween-80 119 % of control | dose: 25.0 mg/kg/injection, schedule: Q01DX009 (ip), vehicle: saline with Tween-80 117 % of control | [5] 108 % of control and 97 % of control

CC1CN(C2CCCCC2)CO1 (stereo not given)
inactive: dose: 12.5 mg/kg/injection, schedule: Q01DX005 (ip), vehicle: saline 104 % of control and 105 % of control | dose: 25.0 mg/kg/injection, schedule: Q01DX005 (ip), vehicle: saline 104 % of control and 112 % of control | dose: 50.0 mg/kg/injection, schedule: Q01DX005 (ip), vehicle: saline 117 % of control and 118 % of control and 124 % of control | dose: 100.0 mg/kg/injection, schedule: Q01DX005 (ip), vehicle: saline 121 % of control and 124 % of control | dose: 200.0 mg/kg/injection, schedule: Q01DX005 (ip), vehicle: saline 109 % of control

COc1ccc2c(c1)[C@@H](NC(C)=O)CCc1cc(OC)c(OC)c(OC)c1-2
inactive: dose: 0.25 mg/kg/injection, schedule: Q01DX005 (ip), vehicle: saline 100 % of control and 108 % of control | dose: 0.5 mg/kg/injection, schedule: Q01DX005 (ip), vehicle: saline 102 % of control and 105 % of control | dose: 1.0 mg/kg/injection, schedule: Q01DX005 (ip), vehicle: saline 104 % of control and 108 % of control | dose: 2.0 mg/kg/injection, schedule: Q01DX005 (ip), vehicle: saline 110 % of control and 96 % of control | dose: 4.0 mg/kg/injection, schedule: Q01DX005 (ip), vehicle: saline 98 % of control and 108 % of control

Nc1ccc(NC(=O)c2cc(Cl)cc(Cl)c2O)c(Cl)c1
inactive: [4] 107 % of control | [5] 114 % of control

COc1ccc(C(=O)CCc2cccc(NC(=O)CCl)c2)cc1
inactive: dose: 60.0 mg/kg/injection, schedule: Q01DX005 (ip), vehicle: saline with Tween-80 91 % of control | dose: 120.0 mg/kg/injection, schedule: Q01DX005 (ip), vehicle: saline with Tween-80 100 % of control | dose: 240.0 mg/kg/injection, schedule: Q01DX005 (ip), vehicle: saline with Tween-80 102 % of control

C=C1C(=O)OC2/C=C(CO)/C=C\C3OC3(C)CC(OC(=O)/C(C)=C/COC(C)=O)C12 (stereo not given)
inactive: dose: 6.25 mg/kg/injection, schedule: Q01DX005 (ip), vehicle: Klucel (hydroxypropylcellulose) (HPC) 94 % of control | dose: 12.5 mg/kg/injection, schedule: Q01DX005 (ip), vehicle: Klucel (hydroxypropylcellulose) (HPC) 103 % of control | dose: 25.0 mg/kg/injection, schedule: Q01DX005 (ip), vehicle: Klucel (hydroxypropylcellulose) (HPC) 109 % of control and 94 % of control | [6] 98 % of control

COc1ccc(CCN2C=CC(C#N)C(C(C)=O)=C2)cc1OC (stereo not given)
inactive: [6] 99 % of control | dose: 100.0 mg/kg/injection, schedule: Q01DX005 (ip), vehicle: Klucel (hydroxypropylcellulose) (HPC) 94 % of control | dose: 200.0 mg/kg/injection, schedule: Q01DX005 (ip), vehicle: Klucel (hydroxypropylcellulose) (HPC) 90 % of control

Cc1ccc(S(=O)(=O)C2C(C)(C)C2(Sc2ccccc2)[Si](C)(C)C)cc1 (stereo not given)
inactive: [1] 102 % of control | [2] 106 % of control | [3] 92 % of control
